Laboratory results as given in patent publication US20220340975A1, “METHOD OF TREATMENT AND PRONOSTIC OF ACUTE MYELOID LEUKEMIA” (INSERM (Institute National de la Santé et de la Recherche …, priority 2019, published 2022).

Assays:
OCI-AML3 cells [1] = assay: CD11b/CD11c differentiation markers by flow cytometry in OCI-AML3 with or without H1d knockdown and ATRA; format: cell-based; conditions: for proportion of the double positive CD11b/CD11c populations / CD11b expression (percentage of CD11b positive cells): ATRA 0.5 μM; for proportion of the double positive CD11b/CD11c populations: 72 h
Description: (A) OCI-AML cells were stably infected by a doxycycline inducible shCtrl or shH1d. Expression of the main histone H1 genes (HIST1H1B, HIST1H1C, HIST1H1D, HIST1H1E, HIST1H1F0 and HIST1HIFx) were analyzed by qPCR in shCtrl and sh #1 without (Dox−) or with 6-days-induction of doxycycline (Dox+). Data represent three independent Dox inductions. Results are normalized on HPRT and expressed in fold change (FC) between Doxycyline treated (Dox+) and non-treated conditions (Dox−). (B) Percentage of CD11b positive cells in shCtrl and sh #1 upon or not (Dox−) 6-days-induction with 2 μg/mL doxycycline (Dox+), without ATRA (wo ATRA) or with 72 hours of ATRA treatment (0.5 μM or 1 μM). (C) Percentage of CD11b-CD11c cells upon 72 h of ATRA-treatment (0.5 μM) in shCtrl and sh #1 conditions. Data represent three independent experiments. Statistical significance was estimated using Mann Whitney test * p<0.05; **p<0.005. (D) Cytological analysis of shCtrl and sh #1 clones upon or not (Dox−) 6-days-induction with doxycycline (Dox+) and after 96 h of ATRA treatment (0.5 μM). (D) May-Grunwald Giemsa coloration of shCtrl and sh #1 clones after 6-days-induction with doxycycline and 96 h hours of ATRA treatment. Black arrows are pointing cytoplasmic azurophilic granules. (E) Expression analysis of two genes associated with ATRA-induced differentiation: CYBB (Cytochrome B-245 Beta Chain) and ITGAM (Integrin Subunit Alpha M) in untreated OCI-AML3 and in ATRA-treated (1 μM) sh #1 without or with doxycycline induction. Data represent three independent experiments. Gene expression was normalized to two housekeeping genes (PGK1 and PPIA). Statistical significance was estimated using T-test (* one-tailed p value <0.05).
The OCI-AML3 cells were grown in MEMα medium supplemented with 20% fetal bovine serum, 100 U/mL penicillin and 100 U/mL streptomycin at 37° C. in humidified atmosphere containing 5% CO2. H1d knockdown was achieved using doxycylin-induced Dharmacon™SMARTvector™ short hairpin RNA (n° V3SH7669-229784413). A non-silencing sh RNA (piSMART VSC10730) was used as a control (shCtrl). Cells containing the SMARTvector™ were selected on puromycin (2 μg/mL) during one day and sorted using ARIAIII cytometer before clonal selection. Three independent cellular clones (sh #1; sh #2; sh #3) were selected. KD of H1d protein was obtained by the addition on doxycycline (2 μg/mL) during 5-7 days. All-trans-retinoic acid (ATRA; Sigma) was resuspended at 10 mM in DMSO and stored at −20° C. Intermediate dilutions were made in culture medium before adding to the cells.
Flow cytometry analyses were performed using a BD-LSRII cytometer and analyzed using BD-DIVA Version 6.1.2 software (BD Biosciences). […]
(§1) To investigate the effect of low H1d expression on AML, we performed H1d knockdown (KD) in OC1-AML3 cells, an AML cell line expressing a NPM1 mutated allele.^26 Efficiency and specificity of our KD were assessed by testing the different mRNA H1 subtypes expression by q-PCR (FIG. 2A) and by measuring H1d protein level after doxycycline induction (data not shown). Consequences of H1d KD on differentiation were evaluated by measuring CD11b and CD11c expression in OCI-AML3 after doxycycline induction. […] As OCI-AML3 can differentiate in vitro in the presence of ATRA, albeit at low efficiency,^27,28 we further analyzed the effect of H1d KD in combination with ATRA treatment. […]

OCI-AML3 cells [2] = assay: Morphological analysis (May-Grunwald Giemsa), cells with cytoplasmic granules; format: cell-based; conditions: ATRA 0.5 μM, 96 h
Description: (§2) (A) OCI-AML cells were stably infected by a doxycycline inducible shCtrl or shH1d. Expression of the main histone H1 genes (HIST1H1B, HIST1H1C, HIST1H1D, HIST1H1E, HIST1H1F0 and HIST1HIFx) were analyzed by qPCR in shCtrl and sh #1 without (Dox−) or with 6-days-induction of doxycycline (Dox+). Data represent three independent Dox inductions. Results are normalized on HPRT and expressed in fold change (FC) between Doxycyline treated (Dox+) and non-treated conditions (Dox−). (B) Percentage of CD11b positive cells in shCtrl and sh #1 upon or not (Dox−) 6-days-induction with 2 μg/mL doxycycline (Dox+), without ATRA (wo ATRA) or with 72 hours of ATRA treatment (0.5 μM or 1 μM). […]
Cytospins were prepared by centrifugation in […] PBS at a speed of 500 rpm for 5 min using Superfrost slides. […] 100 cells were counted in duplicate for each condition and examined for cellular morphology using an structured light ApoTome™ microscope (Zeiss, Munich, Germany) equipped with a 63× 1.4 plan ApoChromat objective and an Axiocam™ MRc5 camera.
To investigate the effect of low H1d expression on AML, we performed H1d knockdown (KD) in OC1-AML3 cells, an AML cell line expressing a NPM1 mutated allele.^26 Efficiency and specificity of our KD were assessed by testing the different mRNA H1 subtypes expression by q-PCR (FIG. 2A) and by measuring H1d protein level after doxycycline induction (data not shown). […]

OCI-AML3 cells [3] = assay: qPCR expression of ATRA-induced genes CYBB and ITGAM; format: cell-based; conditions: ATRA 1 μM, H1d KD versus no doxycycline induction
Description: as §2, §1

[4] = tested on: NPM1mut AML patient-derived xenograft (H3K27me3HIST1high / H3K27me3HIST1low); assay: Patient-derived xenograft (PDX) treated with Ara-C; format: in vivo, mice; conditions: for Percentage of leukemic initiating cells (LIC) in BM: 2-round ARAC treated versus untreated
Description: FIG. 4: Detection of leukemic initiating cells after ARAC treatment. (A) H3K27me3HIST1^high and H3K27me3HIST1^low AML secondary transplants were injected in immunocompromised mice (NSG). At disease detection, mice were treated with a first round of ARAC (T1). Blasts in the peripheral blood were followed and a second ARAC treatment (T2) was administrated. (B) Frequency of leukemic initiating cells were analyzed in the BM of the transplanted mice. Percentages are calculated in relation to CD45 and CD33 positive cells detected.
We determined the response to chemotherapy according to H3K27me3 status. This was tested in vivo using patient-derived xenograft (PDX) treated with chemotherapeutic drugs (Ara-C). We used secondary transplantation from 1 H3K27me3HIST1low and 2 H3K27me3HIST1high NPM1mut AML patients. Experimental groups of 6 mice/groups of H3K27me3 HIST1high versus H3K27me3 HIST1low were studied. Mice were treated for one week and progression of leukemia was evaluated by counting hCD45+ cells in blood and after euthanasia in bone marrow. Mouse maintenance and experimental procedures were performed in accordance with protocols approved and compliance with policies approved by the local Committee for Animal Experimentation of Marseille (CAE of Provence number 14), France (2-091009).
We performed a second round of ARAC treatment and analyzed the presence of leukemic cells 4-day post treatment. Numbers of blasts were variable depending on the patient with an accumulation in the BM of leukemic Blast in one of the PDX. […] Thus we analyzed the % of LIC in the 2-round ARAC treated mice in comparison to untreated ones (FIG. 4A).

SMILES | proportion of the double positive CD11b/CD11c populations (OCI-AML3 cells [1]; H1d KD cells) [%] | proportion of the double positive CD11b/CD11c populations (OCI-AML3 cells [1]; control (no H1d KD)) [%] | CD11b expression (percentage of CD11b positive cells) (OCI-AML3 cells [1]; 72 hours, with H1d KD (doxycycline-induced)) [%] | CD11b expression (percentage of CD11b positive cells) (OCI-AML3 cells [1]; 72 hours, without H1d KD (control)) [%] | CD11b expression (OCI-AML3 cells [1]; ATRA 1 μM, 72 hours, with H1d KD versus control) | proportion of cells with more than two cytoplasmic granules (OCI-AML3 cells [2]; H1d KD) | proportion of cells with more than two cytoplasmic granules (OCI-AML3 cells [2]; control (no H1d KD)) [%] | CYBB mRNA expression level (OCI-AML3 cells [3]) | ITGAM mRNA expression level (OCI-AML3 cells [3]) | Percentage of leukemic initiating cells (LIC) in BM ([4]; H3K27me3HIST1high PDX) | Percentage of leukemic initiating cells (LIC) in BM ([4]; H3K27me3HIST1low PDX) | Response to chemotherapy (progression of leukemia, hCD45+ cells) ([4]; first round, one week treatment, all PDX independently of H3K27me3HIST1 status)
CC1=C(/C=C/C(C)=C/C=C/C(C)=C/C(=O)O)C(C)(C)CCC1 [ATRA, all-trans retinoic acid] | 42.5 | 29.8 | 41 | 22.6 | significant increase | 31.5±3.7 | 9.7 | increased the amplitude of ATRA-induced upregulation | increased the amplitude of ATRA-induced upregulation | – | – | –
Nc1ccn([C@@H]2O[C@H](CO)[C@@H](O)[C@@H]2O)c(=O)n1 [ARAC, cytarabine] | – | – | – | – | – | – | – | – | – | identical before and after treatment | increased | Response to chemotherapy was obtained in all mice
